Experimental findings from the supplement of paper PMC7108870 are described below.

The test system of assay [1] is HEK293sieSTAT3(wt). Description: drug sensitivity score (DSS), cytotoxicity CellTox Green (DSS (dimensionless)); higher = more cytotoxic; extreme values may be limits of the assay. The conditions noted are these: 72 h; STAT3 variant: wild type. The method in brief:
(§1)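 HEK293 cells with a STAT3-dependent luciferase reporter, overexpressing either wild-type or mutant STAT3, were dispensed (20 μl at 100,000 cells/ml) into 384-well plates holding compounds acoustically pre-plated at 5 concentrations in 10-fold dilutions. The plates were kept for 72 hours at 37°C and 5% CO2, then CellTox Green fluorescence (485/520 nm) followed by CellTiter-Glo luminescence was read on a PHERAstar FS. Breeze was used to compute a drug sensitivity score from the dose-response curve area after normalisation to negative and positive control wells, and each value comes from one representative of two experiments.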

Assay [2] deals with HEK293sieSTAT3(Y640F). Described as above. The following applies: 72 h; STAT3 variant: Y640F (constitutively active). The method, boiled down:
as §1

The subject of assay [3] is HEK293sieSTAT3(wt). Description: drug sensitivity score (DSS), viability CellTiter-Glo (DSS (dimensionless)); higher = more growth inhibition; extreme values may be limits of the assay. The following applies: 72 h; STAT3 variant: wild type. The method in brief: as §1
Assay [4] has as its system HEK293sieSTAT3(Y640F). Described as above. The conditions noted are these: 72 h; STAT3 variant: Y640F (constitutively active). The method in brief:
as §1

`O=C(O)c1ccc(Nc2ncc3c(n2)-c2ccc(Cl)cc2C(c2c(F)cccc2F)=NC3)cc1` [MLN-8054] (top concentration tested 10000 nM): the drug sensitivity score is 2.73 in the assay on HEK293sieSTAT3(wt) [1], 0 in the assay with HEK293sieSTAT3(Y640F) [2], 11 in the assay on HEK293sieSTAT3(wt) [3] and 6.2 in the assay on HEK293sieSTAT3(Y640F) [4].

Take `O=C(Nc1cccc(NC(=O)c2cccc(O)c2O)c1)c1cccc(O)c1O` [MST-312] (top concentration tested 10000 nM): the drug sensitivity score is 6.46 in the assay on HEK293sieSTAT3(wt) [1], 1.09 with HEK293sieSTAT3(Y640F) [2], 13.2 with HEK293sieSTAT3(wt) [3] and 6.74 in the assay with HEK293sieSTAT3(Y640F) [4].

With `CNC(=O)[C@@H](NC(=O)[C@H](CC(C)C)[C@H](O)C(=O)NO)C(C)(C)C` [Marimastat] (top concentration tested 10000 nM), the drug sensitivity score in the assay with HEK293sieSTAT3(wt) [1] is 0; in the assay on HEK293sieSTAT3(Y640F) [2], 0; in the assay with HEK293sieSTAT3(wt) [3], 1.16; in the assay with HEK293sieSTAT3(Y640F) [4] it was 1.16.

As to `Cc1ccc(NC(=O)c2ccc(CN3CCN(C)CC3)cc2)cc1Nc1nc(-c2cccnc2)cs1` [Masitinib] (top concentration tested 10000 nM), the drug sensitivity score in the assay on HEK293sieSTAT3(wt) [1] was determined as 5.99; in the assay on HEK293sieSTAT3(Y640F) [2], 0.7; with HEK293sieSTAT3(wt) [3], 7.57; in the assay with HEK293sieSTAT3(Y640F) [4] it was 4.59.

Take `CC(=O)O[C@]1(C(C)=O)CC[C@H]2[C@@H]3C=C(C)C4=CC(=O)CC[C@]4(C)[C@H]3CC[C@@]21C` [Megestrol acetate] (top concentration tested 10000 nM): the drug sensitivity score came out at 0 in the assay with HEK293sieSTAT3(wt) [1], 0 in the assay with HEK293sieSTAT3(Y640F) [2], 0.97 with HEK293sieSTAT3(wt) [3] and 3.65 with HEK293sieSTAT3(Y640F) [4].

`N[C@@H](Cc1ccc(N(CCCl)CCCl)cc1)C(=O)O` [Melphalan] (top concentration tested 12500 nM): the drug sensitivity score was found to be 0 in the assay on HEK293sieSTAT3(wt) [1], 0 in the assay on HEK293sieSTAT3(Y640F) [2], 0 in the assay with HEK293sieSTAT3(wt) [3] and 1.69 with HEK293sieSTAT3(Y640F) [4].

Regarding `CCN(CC)CCCC(C)Nc1c2ccc(Cl)cc2nc2ccc(OC)cc12` (configuration not stated) [Mepacrine] (top concentration tested 50000 nM), the drug sensitivity score is 19.7 in the assay on HEK293sieSTAT3(wt) [1], 18.1 with HEK293sieSTAT3(Y640F) [2], 21.4 in the assay with HEK293sieSTAT3(wt) [3] and 21.1 in the assay on HEK293sieSTAT3(Y640F) [4].

For the molecule `S=c1[nH]cnc2nc[nH]c12` [Mercaptopurine] (top concentration tested 10000 nM), the drug sensitivity score was determined as 0 with HEK293sieSTAT3(wt) [1], 0 with HEK293sieSTAT3(Y640F) [2], 7.64 in the assay with HEK293sieSTAT3(wt) [3] and 7.54 with HEK293sieSTAT3(Y640F) [4].

As to `Cc1ccc(C(=O)Nc2ccc(Oc3cc4cnn(C)c4cc3-c3cn[nH]c3)c(F)c2)c(=O)n1-c1ccc(F)cc1` [Merestinib] (top concentration tested 1000 nM), the drug sensitivity score amounted to 0 in the assay on HEK293sieSTAT3(wt) [1], 0 in the assay with HEK293sieSTAT3(Y640F) [2], 1.38 in the assay with HEK293sieSTAT3(wt) [3] and 4.06 in the assay with HEK293sieSTAT3(Y640F) [4].

With `CN(C)C(=N)NC(=N)N` [Metformin] (top concentration tested 100000 nM), the drug sensitivity score turned out to be 2.32 in the assay on HEK293sieSTAT3(wt) [1], 0 in the assay on HEK293sieSTAT3(Y640F) [2], 2.41 in the assay on HEK293sieSTAT3(wt) [3] and 0.22 with HEK293sieSTAT3(Y640F) [4].

For `CN(Cc1cnc2nc(N)nc(N)c2n1)c1ccc(C(=O)N[C@@H](CCC(=O)O)C(=O)O)cc1` [Methotrexate] (top concentration tested 5000 nM), the drug sensitivity score in the assay on HEK293sieSTAT3(wt) [1] was 1.17; in the assay on HEK293sieSTAT3(Y640F) [2], 0; in the assay with HEK293sieSTAT3(wt) [3], 17; with HEK293sieSTAT3(Y640F) [4], 26.1.

With `C[C@H]1C[C@@H]2[C@H]([C@@H](O)C[C@@]3(C)[C@H]2CC[C@]3(O)C(=O)CO)[C@@]2(C)C=CC(=O)C=C12` [Methylprednisolone] (top concentration tested 10000 nM), the drug sensitivity score in the assay with HEK293sieSTAT3(wt) [1] was determined as 0; in the assay with HEK293sieSTAT3(Y640F) [2], 0; with HEK293sieSTAT3(wt) [3], 1.52; with HEK293sieSTAT3(Y640F) [4] it was 2.04.

In the case of `CO[C@@H]1[C@H](N(C)C(=O)c2ccccc2)C[C@H]2O[C@]1(C)n1c3ccccc3c3c4c(c5c6ccccc6n2c5c31)C(=O)NC4` [Midostaurin] (top concentration tested 10000 nM), the drug sensitivity score in the assay on HEK293sieSTAT3(wt) [1] is 2.79; in the assay with HEK293sieSTAT3(Y640F) [2] it was 0; with HEK293sieSTAT3(wt) [3], 4.05; in the assay on HEK293sieSTAT3(Y640F) [4], 5.01.

For the molecule `CNC(=O)c1nn(C)c2c1C(C)(C)Cc1cnc(Nc3ccc(N4CCN(C)CC4)cc3)nc1-2` [Milciclib] (top concentration tested 10000 nM), the drug sensitivity score in the assay on HEK293sieSTAT3(wt) [1] stood at 7.5; with HEK293sieSTAT3(Y640F) [2], 1; with HEK293sieSTAT3(wt) [3], 15; with HEK293sieSTAT3(Y640F) [4] it was 11.2.

On to `CO[C@@]12[C@H](COC(N)=O)C3=C(C(=O)C(C)=C(N)C3=O)N1C[C@@H]1N[C@@H]12` [Mitomycin C] (top concentration tested 10000 nM), for which the drug sensitivity score in the assay with HEK293sieSTAT3(wt) [1] was 1.95; in the assay on HEK293sieSTAT3(Y640F) [2] it was 0.86; in the assay on HEK293sieSTAT3(wt) [3] it was 5.72; in the assay on HEK293sieSTAT3(Y640F) [4], 14.5.

As for `Clc1ccc(C(c2ccccc2Cl)C(Cl)Cl)cc1` (configuration not stated) [Mitotane] (top concentration tested 10000 nM), the drug sensitivity score in the assay on HEK293sieSTAT3(wt) [1], in the assay on HEK293sieSTAT3(Y640F) [2], with HEK293sieSTAT3(wt) [3] and with HEK293sieSTAT3(Y640F) [4] was 0 in each case.

On to `O=C1c2c(O)ccc(O)c2C(=O)c2c(NCCNCCO)ccc(NCCNCCO)c21` [Mitoxantrone] (top concentration tested 1000 nM), for which the drug sensitivity score came to 0.93 in the assay with HEK293sieSTAT3(wt) [1], 0.1 with HEK293sieSTAT3(Y640F) [2], 9.78 in the assay with HEK293sieSTAT3(wt) [3] and 10.6 with HEK293sieSTAT3(Y640F) [4].

Regarding `Nc1ccccc1NC(=O)c1ccc(CNc2nccc(-c3cccnc3)n2)cc1` [Mocetinostat] (top concentration tested 10000 nM), the drug sensitivity score came out at 6.57 in the assay on HEK293sieSTAT3(wt) [1], 2.68 in the assay on HEK293sieSTAT3(Y640F) [2], 13.1 with HEK293sieSTAT3(wt) [3] and 11.5 in the assay with HEK293sieSTAT3(Y640F) [4].

Turning to `N#CCNC(=O)c1ccc(-c2ccnc(Nc3ccc(N4CCOCC4)cc3)n2)cc1` [Momelotinib] (top concentration tested 10000 nM), the drug sensitivity score came out at 5.09 in the assay with HEK293sieSTAT3(wt) [1], 3.84 in the assay with HEK293sieSTAT3(Y640F) [2], 5.53 in the assay on HEK293sieSTAT3(wt) [3] and 7.37 in the assay with HEK293sieSTAT3(Y640F) [4].

On to `CC1(C)CNc2cc(NC(=O)c3cccnc3NCc3ccncc3)ccc21` [Motesanib] (top concentration tested 10000 nM), for which the drug sensitivity score in the assay with HEK293sieSTAT3(wt) [1] worked out at 0.6; with HEK293sieSTAT3(Y640F) [2] it was 0.35; with HEK293sieSTAT3(wt) [3], 1.53; in the assay with HEK293sieSTAT3(Y640F) [4], 2.6.

Regarding `FC(F)(F)c1ccc(/C=C/c2nc(COc3ccc(CCCCn4ccnn4)cc3)co2)cc1` [Mubritinib] (top concentration tested 1000 nM), the drug sensitivity score in the assay on HEK293sieSTAT3(wt) [1] was 0.57; in the assay on HEK293sieSTAT3(Y640F) [2], 0; with HEK293sieSTAT3(wt) [3] it was 5.94; with HEK293sieSTAT3(Y640F) [4], 8.41.

In the case of `Cc1cc(OCc2nnc(SC3CCCC3)n2-c2cccnc2)ccc1-c1ccc(S(C)(=O)=O)cc1` [NMS-873] (top concentration tested 10000 nM), the drug sensitivity score was 7.29 in the assay with HEK293sieSTAT3(wt) [1], 6.39 with HEK293sieSTAT3(Y640F) [2], 12.5 in the assay with HEK293sieSTAT3(wt) [3] and 11.8 in the assay with HEK293sieSTAT3(Y640F) [4].

Consider `CCN1CCN(Cc2ccc(-c3cc4c(N[C@H](C)c5ccccc5)ncnc4[nH]3)cc2)CC1` [NVP-AEE788] (top concentration tested 2500 nM), for which the drug sensitivity score with HEK293sieSTAT3(wt) [1] turned out to be 0.32; in the assay on HEK293sieSTAT3(Y640F) [2], 0; with HEK293sieSTAT3(wt) [3], 1.25; with HEK293sieSTAT3(Y640F) [4] it was 1.43.
